In this assay the test system is mutant Huntington (HTT) protein. Kind of assay: HTT Mutant HTRF iPSC assay (mHTT protein lowering). It is filed as cell-based. The note with it: human iPSC derived from a HTT patient with a poly-Q49 mutation. (Time-resolved FRET reads energy transfer from a long-lived donor to a nearby acceptor.)

IC50 data for 34 compounds are collected here from patent US20250353841A1 (BIOGEN MA INC., priority 2022, published 2025).

A value given as a limit tells only on which side of the number the result lay.

What is called IC50 is the concentration that gives 50% inhibition. A lower IC50 goes with inhibition by little substance. The compound `Cc1nc2c(C)cc(-c3cc(F)c4nc(N5CCC6(CCN(C)CC6)C5)oc4c3)nn2n1` [Compound 498, 6-(2,8-dimethyl-[1,2,4]triazolo[1,5-b]pyridazin-6-yl)-4-fluoro-2-(8-methyl-2,8-diazaspiro[4.5]decan-2-yl)benzo[d]oxazole] yielded an IC50 of 100 to 1000 nM. The result for `Cc1cn2nc(-c3cc(F)c4nc(N5CCC6(CCN(C)CC6)C5)oc4c3)cc2c(C)n1` [Compound 499, 6-(4,6-dimethylpyrazolo[1,5-a]pyrazin-2-yl)-4-fluoro-2-(8-methyl-2,8-diazaspiro[4.5]decan-2-yl)benzo[d]oxazole] reads 100 to 1000 nM; that for `Cc1cn2nc(-c3cc(F)c4nc(N5CCCC(N(C)C)C5)oc4c3)cc(C)c2n1` (stereo not shown) [Compound 500, 1-(6-(2,8-dimethylimidazo[1,2-b]pyridazin-6-yl)-4-fluorobenzo[d]oxazol-2-yl)-N,N-dimethylpiperidin-3-amine], 100 to 1000 nM; that for `Cc1cn2nc(-c3cc(F)c4nc(N5CCC6(CCN(C)C6)C5)oc4c3)cc(C)c2n1` (stereo not shown) [Compound 501, 6-(2,8-dimethylimidazo[1,2-b]pyridazin-6-yl)-4-fluoro-2-(7-methyl-2,7-diazaspiro[4.4]nonan-2-yl)benzo[d]oxazole], 100 to 1000 nM. In the case of `CCN1CCC(N(C)c2nc3c(F)cc(-c4cc(C)c5nc(C)cn5n4)cc3o2)CC1` [Compound 502, 6-(2,8-dimethylimidazo[1,2-b]pyridazin-6-yl)-N-(1-ethylpiperidin-4-yl)-4-fluoro-N-methylbenzo[d]oxazol-2-amine] it was under 100 nM; in that of `CCN1CCC(N(C)c2nc3c(F)cc(-c4cc(C)c5nc(C)cn5n4)cc3o2)CC1C` (stereo not shown) [Compound 503, 6-(2,8-dimethylimidazo[1,2-b]pyridazin-6-yl)-N-(1-ethyl-2-methylpiperidin-4-yl)-4-fluoro-N-methylbenzo[d]oxazol-2-amine], under 100 nM; in that of `Cc1cn2nc(-c3cc(F)c4nc(N(C)C5CC(C)(C)NC(C)(C)C5)oc4c3)ccc2n1` [Compound 504, 4-fluoro-N-methyl-6-(2-methylimidazo[1,2-b]pyridazin-6-yl)-N-(2,2,6,6-tetramethylpiperidin-4-yl)benzo[d]oxazol-2-amine], 100 to 1000 nM. In the case of `COc1cc(-c2cc(F)c3nc(N4CCC5(CCN(C)CC5)C4)oc3c2)nn2nc(C)nc12` [Compound 505, 4-fluoro-6-(8-methoxy-2-methyl-[1,2,4]triazolo[1,5-b]pyridazin-6-yl)-2-(8-methyl-2,8-diazaspiro[4.5]decan-2-yl)benzo[d]oxazole] it was under 100 nM; in that of `Cc1cn2nc(-c3cc(F)c4nc(N5CCC(N(C)C)CC5)oc4c3)cc(C(F)(F)F)c2n1` [Compound 506, 1-(4-fluoro-6-(2-methyl-8-(trifluoromethyl)imidazo [1,2-b]pyridazin-6-yl)benzo[d]oxazol-2-yl)-N,N-dimethylpiperidin-4-amine], under 100 nM. `Cc1cn2nc(-c3cc(F)c4nc(N5CCC6(CCN(C)CC6)C5)oc4c3)cc(C(F)F)c2n1` [Compound 507, 6-(8-(difluoromethyl)-2-methylimidazo[1,2-b]pyridazin-6-yl)-4-fluoro-2-(8-methyl-2,8-diazaspiro[4.5]decan-2-yl)benzo[d]oxazole] displayed an IC50 of under 100 nM. The result for `Cc1cn2nc(-c3cc(F)c4nc(N5CCC6(CCCN6C)CC5)oc4c3)cc(C)c2n1` [Compound 514, 6-(2,8-dimethylimidazo[1,2-b]pyridazin-6-yl)-4-fluoro-2-(1-methyl-1,8-diazaspiro[4.5]decan-8-yl)benzo[d]oxazole] reads under 100 nM. In the case of `Cc1cn2nc(-c3cc(F)c4nc(N5CCC6(CCN(C)CC6)CC5)oc4c3)cc(C)c2n1` [Compound 515, 6-(2,8-dimethylimidazo[1,2-b]pyridazin-6-yl)-4-fluoro-2-(9-methyl-3,9-diazaspiro[5.5]undecan-3-yl)benzo[d]oxazole] it was 100 to 1000 nM. The result for `Cc1cn2nc(-c3cc(F)c4nc(N5CCC6(CCN(C)CC6)C5)oc4c3)cc(C(F)(F)F)c2n1` [Compound 520, 4-fluoro-6-(2-methyl-8-(trifluoromethyl)imidazo [1,2-b]pyridazin-6-yl)-2-(8-methyl-2,8-diazaspiro[4.5]decan-2-yl)benzo[d]oxazole] reads under 100 nM; that for `Cc1cn2cc(-c3cc(F)c4oc(N(C)CCN5CCOCC5)nc4c3)cc(F)c2n1` [Compound 532, 7-fluoro-5-(8-fluoro-2-methylimidazo[1,2-a]pyridin-6-yl)-N-methyl-N-(2-morpholinoethyl)benzo [d]oxazol-2-amine], 1000 to 9000 nM. With `CCN1CCC(N(C)c2nc3cc(-c4cc(C)c5nc(C)cn5n4)cc(F)c3o2)CC1C` [Compound 533, rel-5-(2,8-dimethylimidazo[1,2-b]pyridazin-6-yl)-N-((2S,4S)-1-ethyl-2-methylpiperidin-4-yl)-7-fluoro-N-methylbenzo[d]oxazol-2-amine], the IC50 lay in the range of 1000 to 9000 nM.

As for `Cc1cn2cc(-c3cc(Cl)c4oc(C5CCNCC5)nc4c3)cc(F)c2n1` [Compound 534, 7-chloro-5-(8-fluoro-2-methylimidazo[1,2-a]pyridin-6-yl)-2-(piperidin-4-yl)benzo[d]oxazole], the IC50 was in the range of 1000 to 9000 nM.

Compound `Cc1cn2nc(-c3cc(Cl)c4oc(C5CCNCC5)nc4c3)cc(C)c2n1` [Compound 535, 7-chloro-5-(2,8-dimethylimidazo[1,2-b]pyridazin-6-yl)-2-(4-piperidyl)-1,3-benzoxazole] registered an IC50 of 1000 to 9000 nM. In the case of `Cc1cn2cc(-c3cc(OC(F)F)c4nc(C5CCNCC5)cn4c3)cc(F)c2n1` [Compound 536, 8-(difluoromethoxy)-8′-fluoro-2′-methyl-2-(piperidin-4-yl)-6,6′-biimidazo[1,2-a]pyridine] it was 100 to 1000 nM; in that of `Cc1cn2nc(-c3cc(OC(F)F)c4nc(C5CCNCC5)cn4c3)cc(C)c2n1` [Compound 537, 6-[8-(difluoromethoxy)-2-(4-piperidyl)imidazo[1,2-a]pyridin-6-yl]-2,8-dimethyl-imidazo[1,2-b]pyridazine], under 100 nM.

As for `COc1cc(-c2cc(C)c3nc(C)cn3n2)cn2cc(C3CCNCC3)nc12` [Compound 538, 6-(8-methoxy-2-(piperidin-4-yl)imidazo[1,2-a]pyridin-6-yl)-2,8-dimethylimidazo[1,2-b]pyridazine], the half-inhibitory concentration (IC50) was under 100 nM. In the case of `COc1cc(-c2cc(C)c3nc(C)cn3n2)cn2cc([C@H]3[C@@H]4CN(C)C[C@@H]43)nc12` [Compound 539, 6-[8-methoxy-2-[(1S,5R)-3-methyl-3-azabicyclo[3.1.0]hexan-6-yl]imidazo[1,2-a]pyridin-6-yl]-2,8-dimethyl-imidazo[1,2-b]pyridazine] it was under 100 nM; in that of `COc1cc(-c2cc(C(F)F)c3nc(C)cn3n2)cn2cc([C@H]3[C@@H]4CN(C)C[C@@H]43)nc12` [Compound 540, 8-(difluoromethyl)-6-[8-methoxy-2-[3-methyl-3-azabicyclo[3.1.0]hexan-6-yl]imidazo[1,2-a]pyridin-6-yl]-2-methyl-imidazo[1,2-b]pyridazine], under 100 nM; in that of `COc1cc(-c2cc(C)c3nc(C)nn3n2)cn2cc([C@H]3[C@@H]4CN(C)C[C@@H]43)nc12` [Compound 541, 6-(8-methoxy-2-((1R,5S,6r)-3-methyl-3-azabicyclo[3.1.0]hexan-6-yl)imidazo[1,2-a]pyridin-6-yl)-2,8-dimethyl-[1,2,4]triazolo[1,5-b]pyridazine], 100 to 1000 nM. As for `COc1cc(-c2cc3c(C)nc(C)cn3n2)cn2cc([C@H]3[C@@H]4CN(C)C[C@@H]43)nc12` [Compound 542, 2-(8-methoxy-2-((1R,5S,6r)-3-methyl-3-azabicyclo[3.1.0]hexan-6-yl)imidazo[1,2-a]pyridin-6-yl)-4,6-dimethylpyrazolo[1,5-a]pyrazine], the IC50 fell in the range of 100 to 1000 nM. In the case of `COc1cc(-c2cc(F)c3nn(C)cc3c2)cc2cn(C3CCNCC3)nc12` [Compound 543, 7-fluoro-7′-methoxy-2-methyl-2′-(piperidin-4-yl)-2H,2′H-5,5′-biindazole] it was 1000 to 9000 nM; in that of `COc1cc(-c2cc(C)c3nn(C)cc3c2)cc2cn(C3CCNCC3)nc12` [Compound 544, 7-methoxy-2′,7′-dimethyl-2-(piperidin-4-yl)-2H,2′H-5,5′-biindazole], 1000 to 9000 nM. For `COc1cc(-c2cc(F)c3nc(C)cn3c2)cc2cn(C3CCNCC3)nc12` [Compound 545, 5-(8-fluoro-2-methylimidazo[1,2-a]pyridin-6-yl)-7-methoxy-2-(piperidin-4-yl)-2H-indazole], the IC50 is 1000 to 9000 nM.

`COc1cc(-c2cc(C#N)c3nc(C)cn3c2)cc2cn(C3CCNCC3)nc12` [Compound 546, 6-(7-methoxy-2-(piperidin-4-yl)-2H-indazol-5-yl)-2-methylimidazo[1,2-a]pyridine-8-carbonitrile] showed an IC50 of 1000 to 9000 nM. In the case of `COc1cc(-c2cc(C)c3nc(C)nn3c2)cc2cn(C3CCNCC3)nc12` [Compound 547, 6-(7-methoxy-2-(piperidin-4-yl)-2H-indazol-5-yl)-2,8-dimethyl-[1,2,4]triazolo[1,5-a]pyridine] it was 1000 to 9000 nM; in that of `COc1cc(-c2cc(F)c3nc(C)cn3c2)cc2nn(C3CCNCC3)nc12` [Compound 548, 6-(8-fluoro-2-methyl-imidazo[1,2-a]pyridin-6-yl)-4-methoxy-2-(4-piperidyl)benzotriazole], 1000 to 9000 nM; in that of `Cc1cn2nc(-c3cc(OC(F)(F)F)c4nc(C5CCNCC5)cn4c3)cc(C)c2n1` [Compound 549, 2,8-dimethyl-6-(2-(piperidin-4-yl)-8-(trifluoromethoxy)imidazo[1,2-a]pyridin-6-yl)imidazo[1,2-b]pyridazine], 100 to 1000 nM. The result for `Cc1cn2nc(-c3ccc4nc(C5CCNCC5)oc4c3)cc(C)c2n1` [Compound 550, 6-(2,8-dimethylimidazo[1,2-b]pyridazin-6-yl)-2-(4-piperidyl)-1,3-benzoxazole] reads 100 to 1000 nM; that for `Cc1cn2nc(-c3ccc4nc(C5CCNCC5)cn4c3)cc(C)c2n1` [Compound 551, 2,8-dimethyl-6-[2-(4-piperidyl)imidazo[1,2-a]pyridin-6-yl]imidazo[1,2-b]pyridazine], under 100 nM; that for `Cc1cn2nc(-c3ccc4nc(C5CCN(C)CC5)cn4c3)cc(C)c2n1` [Compound 552], 100 to 1000 nM.
